# Data as given in US11466017B2, “Heterocyclic inhibitors of PTPN11” (priority 2011, dated 2022).
# Tested on: BT474 human breast carcinomas cell line
# Assay: In vivo tumor model, BT474 (HER2+) xenograft
# Details: BT474 xenograft in CB-17/SCID mice, 100 mg/kg once per day oral gavage, 5 days on/2 days off, 4 weeks
# Excerpt: Xenografts were initiated with BT474 human breast carcinomas cell line and maintained by serial subcutaneous transplantation in CB-17/SCID mice (Charles River). On the day of tumor implant, each test mouse received a 1 mm^3 BT474 fragment implanted subcutaneously in the right flank, and tumor growth was monitored as the average size approached the target range of 100 to 150 mm3. About three weeks post-implantation, the animals were randomized and grouped based on tumor volume and mouse body weight. […] Tumors were measured in two dimensions using calipers, and volume was calculated using the formula: Tumor Volume (mm^3)=w^2× ½.
smiles,measurement,value
"CC1(N)CCN(c2cnc3c(-c4cccc(Cl)c4Cl)n[nH]c3n2)CC1 [Example 1, 1-(3-(2,3-dichlorophenyl)-1H-pyrazolo[3,4-b]pyrazin-6-yl)-4-methylpiperidin-4-amine]",tolerability (body weight),tolerated dose
same,tumor growth (tumor volume),significant suppression of tumor growth
